Reference: the NIST ThermoML archive (doi:10.1021/acs.jced.8b00132)
Where “and” joins values, the source holds several entries; their conditions need not be identical. Equal values may be shown once. Numbers after ± are expanded uncertainties.

O=C(C(F)(F)C(F)(F)F)C(F)(C(F)(F)F)C(F)(F)F [dodecafluoro-2-methylpentan-3-one]
Settings | thermal conductivity
389.64 K, 670 kPa, Liquid, transient hot wire | 0.04285 ± 0.0009 W/m/K
389.64 K, 9501 kPa, Liquid, transient hot wire | 0.04974 ± 0.001 W/m/K
389.64 K, 9504 kPa, Liquid, transient hot wire | 0.04979 ± 0.001 W/m/K
389.65 K, 670 kPa, Liquid, transient hot wire | 0.04282 ± 0.0009 W/m/K
389.65 K, 53766 kPa, Liquid, transient hot wire | 0.06802 ± 0.0014 W/m/K
389.66 K, 53751 kPa, Liquid, transient hot wire | 0.06802 ± 0.0014 W/m/K
389.7 K, 21438 kPa, Liquid, transient hot wire | 0.05608 ± 0.0012 W/m/K
389.7 K, 21439 kPa, Liquid, transient hot wire | 0.05607 ± 0.0012 W/m/K
389.72 K, 40368 kPa, Liquid, transient hot wire | 0.0636 ± 0.0013 W/m/K
389.72 K, 67805 kPa, Liquid, transient hot wire | 0.07218 ± 0.0015 W/m/K
389.72 K, 67826 kPa, Liquid, transient hot wire | 0.07217 ± 0.0015 W/m/K
389.73 K, 40356 kPa, Liquid, transient hot wire | 0.06359 ± 0.0013 W/m/K
389.74 K, 5608 kPa, Liquid, transient hot wire | 0.04712 ± 0.00098 W/m/K
389.75 K, 14721 kPa, Liquid, transient hot wire | 0.0528 ± 0.0011 W/m/K
389.76 K, 2811 kPa, Liquid, transient hot wire | 0.04489 ± 0.00094 W/m/K
389.76 K, 14719 kPa, Liquid, transient hot wire | 0.05276 ± 0.0011 W/m/K
389.77 K, 2810 kPa, Liquid, transient hot wire | 0.04491 ± 0.00094 W/m/K
389.79 K, 29871 kPa, Liquid, transient hot wire | 0.0597 ± 0.0012 W/m/K
389.8 K, 29864 kPa, Liquid, transient hot wire | 0.05959 ± 0.0012 W/m/K
389.8 K, 53730 kPa, Liquid, transient hot wire | 0.06799 ± 0.0014 W/m/K
389.81 K, 53715 kPa, Liquid, transient hot wire | 0.06798 ± 0.0014 W/m/K
389.83 K, 9502 kPa, Liquid, transient hot wire | 0.0497 ± 0.001 W/m/K
389.83 K, 9503 kPa, Liquid, transient hot wire | 0.04976 ± 0.001 W/m/K
389.84 K, 669 kPa, Liquid, transient hot wire | 0.04282 ± 0.0009 W/m/K and 0.04287 ± 0.0009 W/m/K
389.85 K, 670 kPa, Liquid, transient hot wire | 0.0428 ± 0.0009 W/m/K and 0.04285 ± 0.0009 W/m/K
389.87 K, 21435 kPa, Liquid, transient hot wire | 0.05603 ± 0.0012 W/m/K
389.87 K, 67783 kPa, Liquid, transient hot wire | 0.07218 ± 0.0015 W/m/K
389.88 K, 40337 kPa, Liquid, transient hot wire | 0.06356 ± 0.0013 W/m/K
389.88 K, 40347 kPa, Liquid, transient hot wire | 0.06347 ± 0.0013 W/m/K
389.88 K, 67759 kPa, Liquid, transient hot wire | 0.07209 ± 0.0015 W/m/K
389.94 K, 5610 kPa, Liquid, transient hot wire | 0.04715 ± 0.00098 W/m/K
389.95 K, 5610 kPa, Liquid, transient hot wire | 0.04716 ± 0.00098 W/m/K
389.95 K, 14717 kPa, Liquid, transient hot wire | 0.05274 ± 0.0011 W/m/K
389.96 K, 2811 kPa, Liquid, transient hot wire | 0.04493 ± 0.00094 W/m/K
389.96 K, 14717 kPa, Liquid, transient hot wire | 0.05275 ± 0.0011 W/m/K
389.97 K, 2812 kPa, Liquid, transient hot wire | 0.04492 ± 0.00094 W/m/K
389.97 K, 29861 kPa, Liquid, transient hot wire | 0.05954 ± 0.0012 W/m/K
389.97 K, 29862 kPa, Liquid, transient hot wire | 0.05955 ± 0.0012 W/m/K
389.97 K, 53688 kPa, Liquid, transient hot wire | 0.06792 ± 0.0014 W/m/K
389.97 K, 53707 kPa, Liquid, transient hot wire | 0.06846 ± 0.0014 W/m/K
390.03 K, 9500 kPa, Liquid, transient hot wire | 0.04976 ± 0.001 W/m/K
390.03 K, 9503 kPa, Liquid, transient hot wire | 0.04976 ± 0.001 W/m/K
390.06 K, 669 kPa, Liquid, transient hot wire | 0.0428 ± 0.0009 W/m/K
390.06 K, 670 kPa, Liquid, transient hot wire | 0.04284 ± 0.0009 W/m/K and 0.04279 ± 0.0009 W/m/K
390.06 K, 21434 kPa, Liquid, transient hot wire | 0.05598 ± 0.0012 W/m/K
390.06 K, 21436 kPa, Liquid, transient hot wire | 0.056 ± 0.0012 W/m/K
390.06 K, 40331 kPa, Liquid, transient hot wire | 0.0635 ± 0.0013 W/m/K
390.06 K, 40336 kPa, Liquid, transient hot wire | 0.06349 ± 0.0013 W/m/K
390.15 K, 5609 kPa, Liquid, transient hot wire | 0.04709 ± 0.00098 W/m/K and 0.04706 ± 0.00098 W/m/K
390.15 K, 14714 kPa, Liquid, transient hot wire | 0.05264 ± 0.0011 W/m/K
390.15 K, 29850 kPa, Liquid, transient hot wire | 0.0595 ± 0.0012 W/m/K
390.16 K, 14712 kPa, Liquid, transient hot wire | 0.05268 ± 0.0011 W/m/K
390.16 K, 29857 kPa, Liquid, transient hot wire | 0.0595 ± 0.0012 W/m/K
390.18 K, 2812 kPa, Liquid, transient hot wire | 0.04486 ± 0.00094 W/m/K
390.19 K, 2812 kPa, Liquid, transient hot wire | 0.04487 ± 0.00094 W/m/K
390.24 K, 9499 kPa, Liquid, transient hot wire | 0.04963 ± 0.001 W/m/K
390.25 K, 9501 kPa, Liquid, transient hot wire | 0.04969 ± 0.001 W/m/K
390.25 K, 21437 kPa, Liquid, transient hot wire | 0.05589 ± 0.0012 W/m/K
390.26 K, 21435 kPa, Liquid, transient hot wire | 0.05593 ± 0.0012 W/m/K
390.28 K, 669 kPa, Liquid, transient hot wire | 0.04276 ± 0.00089 W/m/K and 0.04278 ± 0.0009 W/m/K
390.29 K, 670 kPa, Liquid, transient hot wire | 0.04279 ± 0.0009 W/m/K and 0.04277 ± 0.00089 W/m/K
390.36 K, 14712 kPa, Liquid, transient hot wire | 0.05264 ± 0.0011 W/m/K
390.36 K, 14714 kPa, Liquid, transient hot wire | 0.05262 ± 0.0011 W/m/K
390.37 K, 5610 kPa, Liquid, transient hot wire | 0.04711 ± 0.00098 W/m/K
390.37 K, 5611 kPa, Liquid, transient hot wire | 0.04706 ± 0.00098 W/m/K
390.42 K, 2814 kPa, Liquid, transient hot wire | 0.04483 ± 0.00094 W/m/K
390.42 K, 2815 kPa, Liquid, transient hot wire | 0.04488 ± 0.00094 W/m/K
390.46 K, 9497 kPa, Liquid, transient hot wire | 0.04961 ± 0.001 W/m/K
390.46 K, 9500 kPa, Liquid, transient hot wire | 0.04968 ± 0.001 W/m/K
390.52 K, 669 kPa, Liquid, transient hot wire | 0.04282 ± 0.0009 W/m/K and 0.04283 ± 0.0009 W/m/K
390.53 K, 670 kPa, Liquid, transient hot wire | 0.04282 ± 0.0009 W/m/K and 0.04286 ± 0.0009 W/m/K
390.57 K, 5608 kPa, Liquid, transient hot wire | 0.04706 ± 0.00098 W/m/K
390.6 K, 5609 kPa, Liquid, transient hot wire | 0.04709 ± 0.00098 W/m/K
390.66 K, 2816 kPa, Liquid, transient hot wire | 0.04487 ± 0.00094 W/m/K
390.66 K, 2817 kPa, Liquid, transient hot wire | 0.04488 ± 0.00094 W/m/K
390.76 K, 669 kPa, Liquid, transient hot wire | 0.04287 ± 0.0009 W/m/K
390.78 K, 669 kPa, Liquid, transient hot wire | 0.04304 ± 0.0009 W/m/K
402.21 K, 448 kPa, Gas, hot wire | 0.02088 ± 0.00098 W/m/K
402.23 K, 447 kPa, Gas, hot wire | 0.02061 ± 0.00097 W/m/K
402.27 K, 307 kPa, Gas, hot wire | 0.02002 ± 0.00094 W/m/K and 0.01983 ± 0.00093 W/m/K
402.31 K, 156 kPa, Gas, hot wire | 0.01939 ± 0.00091 W/m/K
402.31 K, 157 kPa, Gas, hot wire | 0.01939 ± 0.00091 W/m/K
402.33 K, 446 kPa, Gas, hot wire | 0.02071 ± 0.00098 W/m/K
402.34 K, 445 kPa, Gas, hot wire | 0.02068 ± 0.00097 W/m/K
